# Reference: patent publication US7829572B2 (Pfizer Inc, priority 2006, dated 2010)
# Target: T1, calcium receptor (CasR) (Homo sapiens, UniProt P41180)
# T1 construct: expressed in transfected cells; host or cells: HEK 293
# T1 sequence (P41180 20-1078): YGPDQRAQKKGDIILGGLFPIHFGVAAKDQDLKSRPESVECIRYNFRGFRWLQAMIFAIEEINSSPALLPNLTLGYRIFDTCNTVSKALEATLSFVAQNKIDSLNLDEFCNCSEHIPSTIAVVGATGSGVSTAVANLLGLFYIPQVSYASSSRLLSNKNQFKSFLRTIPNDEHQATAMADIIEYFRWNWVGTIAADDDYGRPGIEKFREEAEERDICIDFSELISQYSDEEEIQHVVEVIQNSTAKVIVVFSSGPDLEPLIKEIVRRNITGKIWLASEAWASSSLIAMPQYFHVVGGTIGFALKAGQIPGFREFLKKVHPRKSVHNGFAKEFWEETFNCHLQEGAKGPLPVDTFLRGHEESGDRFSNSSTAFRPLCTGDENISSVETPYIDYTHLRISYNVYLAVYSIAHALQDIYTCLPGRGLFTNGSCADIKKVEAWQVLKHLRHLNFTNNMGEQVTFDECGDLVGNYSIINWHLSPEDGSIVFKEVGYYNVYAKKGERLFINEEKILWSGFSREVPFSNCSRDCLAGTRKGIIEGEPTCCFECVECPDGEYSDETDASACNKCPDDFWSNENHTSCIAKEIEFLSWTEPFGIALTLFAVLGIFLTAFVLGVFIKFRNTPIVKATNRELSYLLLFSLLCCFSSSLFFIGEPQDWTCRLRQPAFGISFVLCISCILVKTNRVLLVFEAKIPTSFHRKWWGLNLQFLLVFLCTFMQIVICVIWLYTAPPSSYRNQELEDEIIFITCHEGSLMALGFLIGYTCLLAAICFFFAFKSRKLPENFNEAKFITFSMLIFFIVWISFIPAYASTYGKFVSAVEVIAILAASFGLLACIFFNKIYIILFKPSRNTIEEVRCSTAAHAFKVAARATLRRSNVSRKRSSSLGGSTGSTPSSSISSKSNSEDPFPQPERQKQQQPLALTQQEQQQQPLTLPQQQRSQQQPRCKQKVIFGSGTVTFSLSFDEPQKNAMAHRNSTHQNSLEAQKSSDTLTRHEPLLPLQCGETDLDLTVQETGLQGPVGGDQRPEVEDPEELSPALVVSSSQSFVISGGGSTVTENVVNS
# Assay: FLIPR Assay for Evaluating the Potency and Selectivity of Test Compounds
# Format: cell-based
# Conditions: HEK 293 cells expressing CasR; 30 minutes pre-incubation; stimulation by 1.7 mM Ca2+; read 42 seconds after stimulation
# Source text: FLIPR Assay for Evaluating the Potency and Selectivity of Test Compounds
# Human kidney cell (HEK 293) expressing the calcium receptor (CasR) are used to detect antagonists of the receptor using Fluorometric imaging plate reader (FLIPR, Molecular Devices, Sunnyvale Calif.). Receptor activation by extracellular calcium results in the release of calcium from intracellular stores into the cytosol. A fluorescent indicator (Fluo-4) is internalized by the cells from growth media and interacts with calcium released into the cytosol to provide a means of quantifying intracellular Ca^2+ levels and receptor agonism/antagonism. Fluorescence intensity is detected by the FLIPR CCD camera and traced as a function of time. Potential antagonists are identified by their ability to decrease this fluorescent response.
# Prior to the addition of test compound cells are washed with a 10 mM HEPES buffer solution. The test compound, for example the compound of Example 1, is added at various doses (from 1 µM to 3 nM) and pre-incubated with cells for 30 minutes followed by stimulation of the CasR by the addition of 1.7 mM Ca^2+. IC50 values are based on the ability of the cells to inhibit the Ca^2+ induced increase in intracellular Ca^2+. Fluorescence signal is read 42 seconds after the stimulation of the CasR by the addition of 1.7 mM Ca^2+.
# The following table provides FLIPR IC50 data for the specified Examples. The IC50s are reported as micromolar concentration with n being the number of times the particular compound was assayed.
row,SMILES,IC50 [µM]
1,"CN1CCN(c2nccc3nc(-c4ccccc4O)n(CCc4ccccc4)c(=O)c23)CC1 [Example 19, 2-(2-Hydroxy-phenyl)-5-(4-methyl-piperazin-1-yl)-3-phenethyl-3H-pyrido[4,3-d]pyrimidin-4-one]",> 100
2,"O=c1c2c(C(F)(F)F)nccc2nc(-c2ncccc2O)n1CCC1CCCC1 [Example 46, 3-(2-cyclopentylethyl)-2-(3-hydroxypyridin-2-yl)-5-(trifluoromethyl)pyrido[4,3-d]pyrimidin-4(3H)-one]",0.29
3,"CC(C)COc1nccc2nc(-c3ccccc3O)n(CCc3ccccc3)c(=O)c12 [Example 34, 2-(2-Hydroxy-phenyl)-5-isobutoxy-3-phenethyl-3H-pyrido[4,3-d]pyrimidin-4-one]",1.47
4,"CC1(COc2nccc3nc(-c4ccccc4O)n(CCc4ccccc4)c(=O)c23)CC1 [Example 31, 2-(2-Hydroxy-phenyl)-5-(1-methyl-cyclopropylmethoxy)-3-phenethyl-3H-pyrido[4,3-d]pyrimidin-4-one]",1.93
5,"O=c1c2c(C(F)(F)F)nccc2nc(-c2ncccc2O)n1CCc1ccc(F)cc1F [Example 14, 3-[2-(2,4-Difluoro-phenyl)-ethyl]-2-(3-hydroxy-pyridin-2-yl)-5-trifluoromethyl-3H-pyrido[4,3-d]pyrimidin-4-one]",0.17
6,"COc1ccccc1CCn1c(-c2ccccc2O)nc2ccnc(C(F)(F)F)c2c1=O [Example 55, 3-(2-methoxyphenethyl)-2-(2-hydroxyphenyl)-5-(trifluoromethyl)pyrido[4,3-d]pyrimidin-4(3H)-one]",0.72
7,"O=c1c2c(C(F)(F)F)nccc2nc(-c2ncccc2C(F)(F)F)n1CCC1CCCCC1 [Example 82, 3-(2-cyclohexylethyl)-5-(trifluoromethyl)-2-(3-(trifluoromethyl)pyridin-2-yl)pyrido[4,3-d]pyrimidin-4(3H)-one]",2.53
8,"Cc1cc(-c2nccc3nc(-c4ccccc4O)n(CCc4ccccc4)c(=O)c23)cnc1N(C)C [Example 28, 5-(6-Dimethylamino-5-methyl-pyridin-3-yl)-2-(2-hydroxy-phenyl)-3-phenethyl-3H-pyrido[4,3-d]pyrimidin-4-one]",4.83
9,"O=c1c2c(C(F)(F)F)nccc2nc(-c2ncccc2O)n1CCC1CCCCO1 (racemic) [Example 49, (R, S)-2-(3-hydroxypyridin-2-yl)-3-(2-(tetrahydro-2H-pyran-2-yl)ethyl)-5-(trifluoromethyl)pyrido[4,3-d]pyrimidin-4(3H)-one]",0.48
10,"O=c1c2c(C(F)(F)F)nccc2nc(-c2cscn2)n1CCc1ccccc1F [Example 56, 3-(2-fluorophenethyl)-2-(thiazol-4-yl)-5-(trifluoromethyl)pyrido[4,3-d]pyrimidin-4(3H)-one]",1.54
11,"COc1ccc(F)c(CCn2c(-c3ncccc3O)nc3ccnc(C(F)(F)F)c3c2=O)c1 [Example 69, 3-(2-fluoro-5-methoxyphenethyl)-2-(3-hydroxypyridin-2-yl)-5-(trifluoromethyl)pyrido[4,3-d]pyrimidin-4(3H)-one]",66.9
12,"O=c1c2c(C(F)(F)F)nccc2nc(-c2ncccc2O)n1CCC1CCCCC1 [Example 47, 3-(2-cyclohexylethyl)-2-(3-hydroxypyridin-2-yl)-5-(trifluoromethyl)pyrido[4,3-d]pyrimidin-4(3H)-one]",0.06
13,"O=c1c2c(-c3ccccc3)nccc2nc(-c2ccccc2O)n1CCc1ccccc1 [Example 24, 2-(2-Hydroxy-phenyl)-3-phenethyl-5-phenyl-3H-pyrido[4,3-d]pyrimidin-4-one]",2.6
14,"CNc1nccc2nc(-c3ccccc3O)n(CCc3ccccc3)c(=O)c12 [Example 16, 2-(2-Hydroxy-phenyl)-5-methylamino-3-phenethyl-3H-pyrido[4,3-d]pyrimidin-4-one]",10.8
15,"CC(Cc1ccccc1F)n1c(-c2cscn2)nc2ccnc(C(F)(F)F)c2c1=O (stereo not drawn) [Example 65, 3-(1-(2-fluorophenyl)propan-2-yl)-2-(thiazol-4-yl)-5-(trifluoromethyl)pyrido[4,3-d]pyrimidin-4(3H)-one]",10.5
16,"O=c1c2c(C(F)(F)F)nccc2nc(-c2cscn2)n1CCc1ccccc1 [Example 54, 3-phenethyl-2-(thiazol-4-yl)-5-(trifluoromethyl)pyrido[4,3-d]pyrimidin-4(3H)-one]",0.71
17,"O=c1c2c(C(F)(F)F)nccc2nc(-c2ncccc2O)n1CCc1ccc(F)c(F)c1 [Example 13, 3-[2-(3,4-Difluoro-phenyl)-ethyl]-2-(3-hydroxy-pyridin-2-yl)-5-trifluoromethyl-3H-pyrido[4,3-d]pyrimidin-4-one]",0.07
18,"O=c1c2c(-c3ccc(N4CCCC4)nc3)nccc2nc(-c2ccccc2O)n1CCc1ccccc1 [Example 29, 5-(6-pyrrolidine-5-pyridin-3-yl)-2-(2-hydroxy-phenyl)-3-phenethyl-3H-pyrido[4,3-d]pyrimidin-4-one]",0.49
19,"O=c1c2c(C(F)(F)F)nccc2nc(-c2ncccc2O)n1CCC1CCOCC1 [Example 68, 2-(3-hydroxypyridin-2-yl)-3-(2-(tetrahydro-2H-pyran-4-yl)ethyl)-5-(trifluoromethyl)pyrido[4,3-d]pyrimidin-4(3H)-one]",> 1
20,"O=c1c2c(C(F)(F)F)nccc2nc(-c2ccccc2C(F)F)n1CCc1ccccc1 [Example 79, 2-(2-(difluoromethyl)phenyl)-3-phenethyl-5-(trifluoromethyl)pyrido[4,3-d]pyrimidin-4(3H)-one]",0.39
21,"O=c1c2c(C(F)(F)F)nccc2nc(-c2ncccc2C(F)(F)F)n1CCc1ccccc1 [Example 76, 3-Phenethyl-5-trifluoromethyl-2-(3-trifluoromethyl-pyridin-2-yl)-3H-pyrido[4,3-d]pyrimidin-4-one]",6.3
22,"C[C@@H](Cc1ccc(F)c(F)c1)n1c(-c2ncccc2O)nc2ccnc(C(F)(F)F)c2c1=O [Example 37b, (S)-3-(1-(3,4-difluorophenyl)propan-2-yl)-2-(3-hydroxypyridin-2-yl) 5-(trifluoromethyl)pyrido[4,3-d]pyrimidin-4(3H)-one]",2.12
23,"C[C@@H](CC1CCCCC1)n1c(-c2ncccc2O)nc2ccnc(C(F)(F)F)c2c1=O [Example 48b, (S)-3-(1-cyclohexylpropan-2-yl)-2-(3-hydroxypyridin-2-yl)-5-(trifluoromethyl)pyrido[4,3-d]pyrimidin-4(3H)-one]",1.69
24,"N#Cc1ccccc1-c1nc2ccnc(C(F)(F)F)c2c(=O)n1CCC1CCCCC1 [Example 62, 2-(3-(2-cyclohexylethyl)-4-oxo-5-(trifluoromethyl)-3,4-dihydropyrido[4,3-d]pyrimidin-2-yl)benzonitrile]",4.63
25,"O=c1c2c(N3CCNCC3)nccc2nc(-c2ccccc2O)n1CCc1ccccc1 [Example 20, 2-(2-Hydroxy-phenyl)-3-phenethyl-5-piperazin-1-yl-3H-pyrido[4,3-d]pyrimidin-4-one]",> 100
26,"C[C@H](Cc1ccccc1)n1c(-c2cccc(F)c2O)nc2ccnc(C(F)(F)F)c2c1=O [Example 50, (R)-2-(3-fluoro-2-hydroxyphenyl)-3-(1-phenylpropan-2-yl)-5-(trifluoromethyl)pyrido[4,3-d]pyrimidin-4(3H)-one]",0.03
27,"O=c1c2c(C(F)(F)F)nccc2nc(-c2ncccc2O)n1C1CCCCC1 [Example 74, 3-cyclohexyl-2-(3-hydroxypyridin-2-yl)-5-(trifluoromethyl)pyrido[4,3-d]pyrimidin-4(3H)-one]",47.8
